Data: US20170334865A1, “DDR2 INHIBITORS AND METHODS OF USING” (WASHINGTON UNIVERSITY, priority 2014, published 2017)
Like-named read-outs stand apart in the source and are kept apart here.

Molecular target: T1, DDR2 extracellular domain (ECD) (Homo sapiens, UniProt Q16832)
T1 sequence (Q16832 22-399 limits assumed): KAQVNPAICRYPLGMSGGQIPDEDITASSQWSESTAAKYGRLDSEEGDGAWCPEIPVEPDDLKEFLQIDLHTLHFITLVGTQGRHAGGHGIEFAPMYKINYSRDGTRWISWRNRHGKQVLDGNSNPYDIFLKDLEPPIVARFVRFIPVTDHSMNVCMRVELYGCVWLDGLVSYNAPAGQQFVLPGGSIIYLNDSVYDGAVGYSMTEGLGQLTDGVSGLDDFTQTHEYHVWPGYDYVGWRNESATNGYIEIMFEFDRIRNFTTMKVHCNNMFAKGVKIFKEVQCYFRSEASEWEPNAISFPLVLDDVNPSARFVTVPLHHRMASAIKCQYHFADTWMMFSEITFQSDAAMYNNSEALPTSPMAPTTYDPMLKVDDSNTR
Assay: in vitro ELISA-type assay, binding of soluble DDR2 ECD to immobilized collagen triple helical peptide
Details: read-out: IC50, Inhibition of DDR2-collagen binding activity
Method: The activity of the synthesized compounds was assayed using an in vitro ELISA-type assay to measure the binding of purified, soluble DDR2 extracellular domain (ECD) to an immobilized substrate. The substrate used was a high affinity, specific, triple helical peptide (see Xu et al., PLoS One. 2012; 7(12): e52209), which represents the minimal DDR2 specific binding domain within collagens I-III.
DDR2-collagen binding activity was measured in the presence of 250 nM, 500 nM, or 2 μM of test compound or DMSO control.

| IC50 (values in nM) [nM] | IC50 (values given in μM) [nM] | SMILES |
| --- | --- | --- |
| 393 | – | COc1cccc(COc2ccc3nc4ccc(=O)cc-4oc3c2)c1 [WRG-R-5] |
| – | 14000 | COCCOc1ccc2nc3ccc(=O)cc-3oc2c1 [WRG-R-4] |
| 558 | – | O=c1ccc2nc3ccc(OS(=O)(=O)c4ccccc4)cc3oc-2c1 [WRG-R-7] |
| 311 | – | O=c1ccc2nc3ccc(OCc4ccncc4)cc3oc-2c1 [WRG-R-10] |
| – | 4000 | CCOc1ccc2nc3ccc(=O)cc-3oc2c1 [7-ethyloxy-phenoxazin-3-one, reference compound] |
| – | 1200 | O=c1ccc2nc3ccc(OCc4cccnc4)cc3oc-2c1 [WRG-R-9] |
| – | > 100000 | O=c1ccc2nc3ccc(NS(=O)(=O)c4ccccc4)cc3oc-2c1 [WRG-R-20] |
| 461 | – | O=c1ccc2nc3ccc(OCc4ccccc4)cc3oc-2c1 [WRG-2, 7-benzyloxy-phenoxazin-3-one] |
| – | 3500 | CCCCCOc1ccc2nc3ccc(=O)cc-3oc2c1 [WRG-1, 7-pentyloxy-phenoxazin-3-one] |
| 110 | – | O=c1ccc2nc3ccc(OCc4ccc(OC(F)F)cc4)cc3oc-2c1 [WRG-R-27] |
| – | 1410 | O=C(Oc1ccc2nc3ccc(=O)cc-3oc2c1)c1ccccc1 [WRG-R-6] |

| SMILES | IC50 (values in nM) [nM] | IC50 (values given in μM) [nM] |
| --- | --- | --- |
| O=C(Nc1ccccc1)Oc1ccc2nc3ccc(=O)cc-3oc2c1 [WRG-R-12] | – | > 100000 |
